Reference: US8410161B2, “Thioxanthone ring system derivatives” (National Defense Medical Center, priority 2010, dated 2013)

What was measured:
Type in all cases: cell-based
[1] = test system: A control cell lines; assay: MTT assay, A control cell lines (lung cancer cell)
Source text: Please refer to Table 1 and FIGS. 4A-4C. According to a MTT assay (Table 1), various cell viabilities of the A control cell lines can be obtained and illustrated in FIG. 4A while the compounds No. 2˜30 are used to treat A control cell lines, wherein A control cell lines are lung cancer cell.

[2] = test system: A3 cell lines; assay: MTT assay, A3 cell lines (lung cancer stem cell)
Source text: Please to FIG. 4B, various cell viabilities of the A3 cell lines can be obtained through the MTT assay and illustrated in FIG. 4B while the compounds No. 1˜30 are used to treat A3 cell lines, wherein A3 cell lines are lung cancer stem cell.

[3] = MTT assay, HEL299 fibroblast; conditions: human
Source text: Please refer to FIG. 4C, various cell viabilities of the HEL299 cell lines can be obtained through the MTT assay while the compounds No. 1˜30 are used to treat HEL299 cell lines, wherein HEL299 cell lines are fibroblast.

| Compound | cell viabilities of A control cell lines (MTT assay) [1] | cell viabilities of A3 cell lines (MTT assay) [2] | viability [3] |
| --- | --- | --- | --- |
| COc1ccc(Sc2ccc3c(=O)c4ccccc4sc3c2Cl)cc1 [No. 17, 4-Chloro-3-(4-methoxylphenylthio)-9H-thioxanthen-9-one] | 97.1 ± 8.74% | 89.4 ± 1.88% | 109 ± 14.5% |
| Cc1ccc(C)c(Sc2ccc3c(=O)c4ccccc4sc3c2Cl)c1 [No. 11, 4-Chloro-3-(2,5-dimethylphenylthio)-9H-thioxanthen-9-one] | 105 ± 2.56% | 96.9 ± 5.20% | 94.4 ± 10.1% |
| Cc1ccc(Sc2ccc3c(=O)c4ccccc4sc3c2Cl)cc1C [No. 13, 4-Chloro-3-(3,4-dimethylphenylthio)-9H-thioxanthen-9-one] | 113 ± 5.86% | 112 ± 1.86% | 112 ± 11.2% |
| CCSc1ccc2c(=O)c3ccccc3sc2c1Cl [No. 2, 4-Chloro-3-(ethylthio)-9H-thioxanthen-9-one] | 85.1 ± 2.74% | 72.7 ± 2.60% | 34 ± 7.95% |
| O=c1c2ccccc2sc2c(Cl)c(Cl)ccc12 [No. 1, 3,4-dichloro-9H-thioxanthen-9-one] |  | 83.7 ± 6.22% | 68.5 ± 12% |
| Cc1ccccc1Sc1ccc2c(=O)c3ccccc3sc2c1Cl [No. 7, 4-Chloro-3-(o-tolylthio)-9H-thioxanthen-9-one] | 103 ± 2.86% | 81.6 ± 4.98% | 91.1 ± 18.7% |
| O=c1c2ccccc2sc2c(Cl)c(Sc3cccc(Cl)c3)ccc12 [No. 30, 4-Chloro-3-(3-chlorophenylthio)-9H-thioxanthen-9-one] | 97.7 ± 1.46% | 92.2 ± 6.17% | 101 ± 3.7% |
| CCOc1cccc(Sc2ccc3c(=O)c4ccccc4sc3c2Cl)c1 [No. 19, 4-Chloro-3-(3-ethoxylphenylthio)-9H-thioxanthen-9-one] | 91.3 ± 1.74% | 98.2 ± 4.79% | 90.3 ± 14.4% |
| CC(C)c1ccccc1Sc1ccc2c(=O)c3ccccc3sc2c1Cl [No. 21, 4-Chloro-3-(2-isopropylphenylthio)-9H-thioxanthen-9-one] | 83.5 ± 12.6% | 93.7 ± 6.01% | 107 ± 5.4% |
| Cc1cccc(Sc2ccc3c(=O)c4ccccc4sc3c2Cl)c1 [No. 8, 4-Chloro-3-(m-tolylthio)-9H-thioxanthen-9-one] | 120 ± 1.51% | 116 ± 1.49% | 74.8 ± 4.04% |
| COc1ccccc1Sc1ccc2c(=O)c3ccccc3sc2c1Cl [No. 15, 4-Chloro-3-(2-methoxylphenylthio)-9H-thioxanthen-9-one] | 85.4 ± 9.66% | 99.0 ± 3.41% | 73 ± 12.3% |
| O=c1c2ccccc2sc2c(Cl)c(SC3CCCC3)ccc12 [No. 5, 4-Chloro-3-(cyclopentylthio)-9H-thioxanthen-9-one] | 108 ± 7.69% | 107 ± 7.17% | 89.5 ± 13.7% |
| CCc1ccccc1Sc1ccc2c(=O)c3ccccc3sc2c1Cl [No. 18, 4-Chloro-3-(2-ethylphenylthio)-9H-thioxanthen-9-one] | 73.2 ± 10.2% | 77.2 ± 5.23% | 104 ± 14.2% |
| CC(C)c1ccc(Sc2ccc3c(=O)c4ccccc4sc3c2Cl)cc1 [No. 20, 4-Chloro-3-(4-isopropylphenylthio)-9H-thioxanthen-9-one] | 74.6 ± 11.2% | 93.9 ± 6.97% | 110 ± 14.3% |
| Cc1ccc(Sc2ccc3c(=O)c4ccccc4sc3c2Cl)cc1 [No. 9, 4-Chloro-3-(p-tolylthio)-9H-thioxanthen-9-one] | 119 ± 4.69% | 115 ± 4.55% | 98.4 ± 12.8% |
| O=c1c2ccccc2sc2c(Cl)c(Sc3ccc(Br)cc3)ccc12 [No. 22, 3-(4-Bromophenylthio)-4-chloro-9H-thioxanthen-9-one] | 104 ± 1.89% | 70.8 ± 3.86% | 66.1 ± 0.66% |
